Data published in publication PMC2582943 (Antiviral Research, 2008).
“And” between values parts separate entries of the source, which are not always exact repeats. Equal values may be shown once. “Also recorded” adds a separate entry of the source. Where a name gives a salt, the structure may show the parent alone. Read-outs that look alike come from different tables or passages of the source.

Assays:
SARS-CoV (strain Urbani) [1] = assay: microbe, parasite or virus in culture; type: cell-based
SARS-CoV (strain Urbani) [2] = assay: microbe, parasite or virus in culture; type: cell-based; remark: listed apart in the source
Vero 76 cells = assay: cells; type: cell-based, African green monkey
[3] = test system: SARS-CoV Frankfurt-1 strain; assay: microbe, parasite or virus in culture; type: cell-based; conditions: for EC50: Severe acute respiratory syndrome coronavirus, Vero 76, read-out: Neutral red uptake assay EC50 ± S.D.
SARS-CoV CHUK-W1 strain [4] = assay: microbe, parasite or virus in culture; type: cell-based; conditions: for EC50: Severe acute respiratory syndrome coronavirus, Vero 76, read-out: Neutral red uptake assay EC50 ± S.D.
[5] = test system: SARS-CoV Toronto-2 strain; assay: microbe, parasite or virus in culture; type: cell-based; conditions: for EC50: Severe acute respiratory syndrome coronavirus, Vero 76, read-out: Neutral red uptake assay EC50 ± S.D.
[6] = test system: SARS-CoV Frankfurt-1 strain; assay: microbe, parasite or virus in culture; type: cell-based; conditions: Severe acute respiratory syndrome coronavirus, Vero 76, read-out: VYR assay EC90 ± S.D.
SARS-CoV CHUK-W1 strain [7] = assay: microbe, parasite or virus in culture; type: cell-based; conditions: Severe acute respiratory syndrome coronavirus, Vero 76, read-out: VYR assay EC90 ± S.D.
[8] = test system: SARS-CoV Toronto-2 strain; assay: microbe, parasite or virus in culture; type: cell-based; conditions: Severe acute respiratory syndrome coronavirus, Vero 76, read-out: VYR assay EC90 ± S.D.
SARS-CoV (Urbani) = test system: SARS-CoV (Urbani); set-up: species or system BALB/c mice; conditions: mouse, in vivo
BALB/c mice = conditions: mouse, in vivo, ip
lungs = conditions: mouse, in vivo
mice = conditions: mouse, in vivo, ip; cited from earlier work
[9] = read-out: Neutral red uptake assay EC50
[10] = read-out: Virus yield reduction assay EC90
[11] = Severe acute respiratory syndrome coronavirus, Vero 76, read-out: Neutral red uptake assay EC50
[12] = Chlorocebus sabaeus, Vero 76, read-out: Virus yield reduction assay IC50
[13] = Severe acute respiratory syndrome coronavirus, Vero 76, read-out: Neutral red uptake assay EC50 ± S.D.
[14] = Severe acute respiratory syndrome coronavirus, Vero 76, read-out: VYR assay EC90 ± S.D.
[15] = Severe acute respiratory syndrome coronavirus, Vero 76, read-out: Virus yield reduction assay EC90
[16] = Chlorocebus sabaeus, Vero 76, read-out: Neutral red uptake assay IC50

CCOS(=O)(=O)[O-].CC[n+]1c2ccccc2nc2ccccc21 [Phenazine ethosulfate]
Neutral red uptake assay SI (SARS-CoV (strain Urbani) [1]): 1.3
EC50 (SARS-CoV (strain Urbani) [1]; [9]): 5.2 ± 2.9 µM
Virus yield reduction assay SI (SARS-CoV (strain Urbani) [2]): 1.1
EC90 (SARS-CoV (strain Urbani) [2]; [10]): 6.1 ± 4.3 µM
IC50 (Vero 76 cells; read-out: Neutral red uptake assay IC50): 6.6 ± 4.7 µM
IC50 (Vero 76 cells; read-out: Virus yield reduction assay IC50): 6.6 ± 4.7 µM

CCC(=O)c1ccc2c(c1)N(CCCN(C)C)c1ccccc1S2 [Propionylpromazine·HCl]
Inhibition of virus replication in vitro (in words) (SARS-CoV (strain Urbani) [1]): essentially inactive
Neutral red uptake assay SI (SARS-CoV (strain Urbani) [1]): <1
EC50 (SARS-CoV (strain Urbani) [1]; [11]): 24.3 ± 15.6 µM
Virus yield reduction assay SI (SARS-CoV (strain Urbani) [2]): 1.4
IC50 (Vero 76 cells; [12]): 19.3 ± 2.2 µM

CN(C)CC/C=C1/c2ccccc2Sc2ccc(Cl)cc21 [Chlorprothixene]
Neutral red uptake assay SI (SARS-CoV (strain Urbani) [1]): 1.9 and 1.4
EC50 (SARS-CoV (strain Urbani) [1]; [11]): 9.5 ± 5.7 µM
EC50 (SARS-CoV (strain Urbani) [1]; [13]): 12 ± 3.5 µM
Neutral red uptake assay SI [3]: 1.2
EC50 [3]: 11.1 ± 3.4 µM
Neutral red uptake assay SI (SARS-CoV CHUK-W1 strain [4]): 1.5
EC50 (SARS-CoV CHUK-W1 strain [4]): 12.6 ± 6.5 µM
Neutral red uptake assay SI [5]: 1.2
EC50 [5]: 12.9 ± 3.6 µM
Virus yield reduction assay SI (SARS-CoV (strain Urbani) [2]): 1.8
EC90 (SARS-CoV (strain Urbani) [2]; [14]): 10.5 ± 5.2 µM
EC90 (SARS-CoV (strain Urbani) [2]; [15]): 10.4 ± 4.2 µM
EC90 [6]: 12.3 ± 0.6 µM
EC90 (SARS-CoV CHUK-W1 strain [7]): 12.1 ± 4.2 µM
EC90 [8]: 13 ± 1 µM
IC50 (Vero 76 cells; Chlorocebus sabaeus, Vero 76, read-out: Neutral red uptake assay IC50 ± S.D.): 13 ± 2 µM
IC50 (Vero 76 cells; [12]): 18.3 ± 3.4 µM
IC50 (Vero 76 cells; read-out: Neutral red uptake assay IC50 ± S.D.): 18.5 µM and 15.8 µM and 16.7 µM

COc1ccc2c(c1)N(C[C@H](C)CN(C)C)c1ccccc1S2 [Methotrimeprazine]
Neutral red uptake assay SI (SARS-CoV (strain Urbani) [1]): 1.4
EC50 (SARS-CoV (strain Urbani) [1]; [11]): 19 ± 8.1 µM
Virus yield reduction assay SI (SARS-CoV (strain Urbani) [2]): 1.7
EC90 (SARS-CoV (strain Urbani) [2]; [15]): 12.3 ± 1.7 µM
IC50 (Vero 76 cells; [16]): 26 ± 10.8 µM
IC50 (Vero 76 cells; [12]): 21 ± 5.4 µM

CN(C)CCCN1c2ccccc2Sc2ccccc21 [Promazine, 10-(3-(dimethylamino)propyl)phenothiazine]
Neutral red uptake assay SI (SARS-CoV (strain Urbani) [1]): 1.2 and <1
EC50 (SARS-CoV (strain Urbani) [1]; [11]): 10.8 ± 8.1 µM
EC50 (SARS-CoV (strain Urbani) [1]; [13]): 14 ± 6.1 µM
Neutral red uptake assay SI [3]: 1.6
EC50 [3]: 21 ± 15.4 µM
Neutral red uptake assay SI (SARS-CoV CHUK-W1 strain [4]): 2.2
EC50 (SARS-CoV CHUK-W1 strain [4]): 15.6 ± 8.5 µM
Neutral red uptake assay SI [5]: 1.5
EC50 [5]: 22.6 ± 12.8 µM
Virus yield reduction assay SI (SARS-CoV (strain Urbani) [2]): 2.1
EC90 (SARS-CoV (strain Urbani) [2]; [14]): 7.8 ± 3.1 µM
EC90 (SARS-CoV (strain Urbani) [2]; [15]): 8.3 ± 2.8 µM
EC90 [6]: 11.6 ± 6.3 µM
EC90 (SARS-CoV CHUK-W1 strain [7]): 16.5 ± 11.1 µM
EC90 [8]: 20.7 ± 9.5 µM
IC50 (Vero 76 cells; [16]): 13.5 ± 6.2 µM
IC50 (Vero 76 cells; [12]): 18.2 ± 14.6 µM
Virucidal activity (virus titer reduction after exposure) (SARS-CoV): did not result in virus titer reduction
Duration of virus replication in the lungs (in words) (SARS-CoV (Urbani)): prolonged virus replication to 14 days; also recorded: significantly prolonged
Virus titer ± S.D., Day 3 (SARS-CoV (Urbani)): 5.6 ± 1.0 Log10 CCID50/g and 5.6 ± 0.4 Log10 CCID50/g and 5.7 ± 0.3 Log10 CCID50/g and 5.6 ± 0.0 Log10 CCID50/g and 5.8 ± 0.4 Log10 CCID50/g and 6.0 ± 0.6 Log10 CCID50/g
Virus titer ± S.D., Day 14 (SARS-CoV (Urbani)): 3.4 ± 0.1 Log10 CCID50/g and 3.4 ± 0.0 Log10 CCID50/g
Inhibition of virus replication in the lungs, therapeutic treatment (in words) (SARS-CoV (Urbani); ip): not efficacious
Reduction of viral replication in the lungs at day 3 (in words) (SARS-CoV (Urbani); ip): did not reduce virus lung titers; also recorded: no significant reduction
Virus titer ± S.D., Day 3 (SARS-CoV (Urbani); ip): 5.6 ± 0.0 Log10 CCID50/g and 6.0 ± 0.6 Log10 CCID50/g and 5.4 ± 0.1 Log10 CCID50/g
Virus titer ± S.D., Day 7 (SARS-CoV (Urbani); ip): <0.75 Log10 CCID50/g
Lethality (BALB/c mice; BALB/c): lethal to all mice by day 3
Lethality (BALB/c mice): somewhat lethal
Histopathological examination of lungs (lungs): no signs of pathology
LD50 (mice): 140 mg/(kg day)

OCCN1CCN(CCCN2c3ccccc3Sc3ccc(Cl)cc32)CC1 [Perphenazine]
Neutral red uptake assay SI (SARS-CoV (strain Urbani) [1]): 1.6
EC50 (SARS-CoV (strain Urbani) [1]; [9]): 9.7 ± 1.2 µM
Virus yield reduction assay SI (SARS-CoV (strain Urbani) [2]): 1.9
IC50 (Vero 76 cells; [12]): 15.8 ± 3.4 µM

CN1CCN(CCCN2c3ccccc3Sc3ccc(C(F)(F)F)cc32)CC1 [Trifluoperazine dimaleate]
Neutral red uptake assay SI (SARS-CoV (strain Urbani) [1]): 1.3
EC50 (SARS-CoV (strain Urbani) [1]; [11]): 7.3 ± 4.7 µM
Virus yield reduction assay SI (SARS-CoV (strain Urbani) [2]): <1
EC90 (SARS-CoV (strain Urbani) [2]; [10]): 10.2 ± 4.4 µM
IC50 (Vero 76 cells; [16]): 9.5 ± 3.1 µM
IC50 (Vero 76 cells; [12]): 8 ± 2.1 µM

CCN(CC)C(C)CN1c2ccccc2Sc2ccccc21 (centres unmarked) [Ethopropazine]
Neutral red uptake assay SI (SARS-CoV (strain Urbani) [1]): 2.0
EC50 (SARS-CoV (strain Urbani) [1]; [11]): 30.5 ± 27.5 µM
Virus yield reduction assay SI (SARS-CoV (strain Urbani) [2]): 1.5
EC90 (SARS-CoV (strain Urbani) [2]; [15]): 42 µM
IC50 (Vero 76 cells; [16]): 61.3 ± 34.7 µM
IC50 (Vero 76 cells; [12]): 61.3 ± 34.7 µM
